Measured values reported in US11999700B1, “[4,4-bis(4-nitrophenyl)-2,5-dioxoimidazolidin-1-yl]acetic acid as an antimicrobial compound” (KING FAISAL UNIVERSITY, priority 2023, dated 2024).

Key:
Assay type in all cases: cell-based
Staphylococcus Aereus = assay: Antimicrobial testing by agar dilution, St. Aereus; settings: after 10, 20, 40 and 60 minutes at all dilutions 1:100, 1:200, 1:400, 1:800
Method: (§1) The antimicrobial properties of the [4,4-bis(4-nitrophenyl)-2,5-dioxoimidazolidin-1-yl]acetic acid were studied by the method of agar dilution. Test solutions of each compound was prepared in concentration of 1% using dimethylformamide as a solvent then they are diluted in physiological solution to obtain the final experimental dilutions 1:100, 1:200, 1:400, 1:800. The effect of these substances are compared with furacillin in a controlable study. The testing microbes used were gram positive bacteria Staphylococcus Aereus, gram negative bacteria Escherichia Coli, Pseudomonas aeruginosa and Candida albicans fungi were taken.
(§2) The experiments used for this survey were meat-pentonlu agar (EPA) for cultivation of bacteria and Saburo environment for fungi. Each experiment used 1 ml of test solution on each plate 500 min. Add 2 drops of emulsified with microbes feel. All experimental samples were taken from the agar after 10, 20, 40, 60 minutes in the environment on the basis of Patrk planted. Bacteria were cultivated at a temperature of 37° C. for 1 day and the mushroom was kept in a thermostat for […] at a temperature of 28° C. in the. Then results were checked.

Escherichia Coli = assay: Antimicrobial testing by agar dilution, E. Coli; settings: after 10, 20, 40 and 60 minutes at all dilutions 1:100, 1:200, 1:400, 1:800
Method: as §1, §2

Pseudomonas aeruginosa = assay: Antimicrobial testing by agar dilution, Ps. aeruginosa; settings: after 10, 20, 40 and 60 minutes at all dilutions 1:100, 1:200, 1:400, 1:800
Method: as §1, §2

Candida albicans = assay: Antimicrobial testing by agar dilution, Candida albicans; settings: Candida albicans fungi, after 10, 20, 40 and 60 minutes at all dilutions 1:100, 1:200, 1:400, 1:800
Method: as §1, §2

Measured: inhibition activity

O=C(O)CN1C(=O)NC(c2ccc([N+](=O)[O-])cc2)(c2ccc([N+](=O)[O-])cc2)C1=O [[4,4-bis(4-nitrophenyl)-2,5-dioxoimidazolidin-1-yl]acetic acid]
higher inhibition activity: all assays above
